Here are results for 14 compounds from patent publication US9233136B2, “4-amino-4-oxobutanoyl peptides as inhibitors of viral replication” (Achillion Pharmaceuticals, Inc., priority 2006, dated 2016).

This assay relates to Hepatitis C replicon in Huh-7 cells. Put plainly: HCV replicon replication assay (NPT ELISA). The following applies: Hepatitis C virus, Huh-7, 72 h. The assay is classed as cell-based. The method, then: Compounds claimed herein are tested for the ability to inhibit viral replication of the Hepatitis C replicon in cultured cells in which the HCV replicon construct has been incorporated. The HCV replicon system was described by Bartenschlager, et. al (Science, 285, pp. 110-113 (1999)). The replicon system is predictive of in vivo anti-HCV activity; compounds that are active in humans uniformly evidence activity in the replicon assay.
In this assay HCV replicon containing cells are treated with different concentrations of the test compound to ascertain the ability of the test compound to suppress replication of the HCV replicon. As a positive control, HCV replicon-containing cells are treated with different concentrations of interferon alpha, a known inhibitor of HCV replication. The replicon assay system includes Neomycin Phosphotransferase (NPT) as a component of the replicon itself in order to detect the transcription of replicon gene products in the host cell. Cells in which the HCV replicon is actively replicating have high levels of NPT; the level of NPT is proportional to HCV replication. […] The NPT level of each sample is measured using a captured ELISA.
A protocol for testing compounds for the ability to inhibit viral replication of the Hepatitis C replicon cultured cells in which the replicon construct has been incorporated, follows.
The HCV replicon contains, 5′-3′, the HCV-IRES, the neomycin phosphotransferase (neo) gene, the IRES of encephalomyocarditis virus, which directs translation of HCV sequences NS3 to NS5B, and the 3′-NTR. The sequence of the HCV replicon has been deposited in GenBank (Accession no. AJ242652).
The replicon is transfected into Huh-7 cells using standard methods such as electroporation.
The cells are then seeded onto 96-well plates at a density of 6000-7500 cells/100 microliters/well (6-7.5×10^5 cells/10 ml/plate). The plates are then incubated at 37° C. in a 5% CO2 incubator.
HCV replicon-containing cells are rinsed with once PBS once; 2 mls of trypsin are then added. Cells are incubated at 37° C. in a 5% CO2 incubator for 3-5 minutes. 10 mls of complete medium is added to stop the reaction. Cells are blown gently, put into a 15 ml tube, and spun at 1200 rpm for four minutes. The trypsin/medium solution is removed and 5 mls of medium (500 ml DMEM (high glucose)) from BRL catalog #12430-054; 50 mls 10% FBS, 5% Geneticin G418 (50 mg/ml, BRL catalog #10131-035), 5 ml MEM non-essential amino acids (100×BRL #11140-050) and 5 ml pen-strep (BRL #15140-148) is added. The cells and media are mixed carefully
Cells are plated with screening medium (500 ml DMEM (BRL #21063-029), 50 ml FBS (BRL #10082-147) and 5 ml MEM non-essential amino acid (BRL #11140-050) at 6000-7500 fcells/100 μl/well of 96 well plate (6-7.5×10^5 cells/10 ml/plate). Plates are placed into 37° C. 5% CO2 incubator overnight.
The following morning, drugs (test compounds or interferon alpha) are diluted in 96 well U bottom plates with media or DMSO/media, depending on the final concentration chosen for screening. Generally for 6 concentrations of each test compounds ranging from 10 micromolar to 0.03 micromolar are applied. 100 μl of the test compound dilution is placed in wells of the 96 well plate containing the HCV replicon cells. Media without drug is added to some wells as a negative controls. DMSO is known to affect cell growth. Therefore, if drugs diluted in DMSO are used, all wells, including negative control (media only) and positive control (interferon alpha) wells, must contain the same concentration of DMSO, for single dose screening. The plates are incubated at 37° C. in a humidified 5% CO2 environment for three days.
On day four, the NTPII assay is quantitated. The medium is poured from the plates and the plates are washed once in 200 μl of PBS. The PBS is then decanted and the plates tapped in a paper towel to remove any remaining PBS. […]

SMILES strings stand for the structures.

What is called EC50 is the concentration that produces a half-maximal response. A low value points to a more potent agent.

`C=CC1CC1(NC(=O)[C@@H]1C[C@@H](Oc2cc(-c3ccccc3)nc3cc(OC)ccc23)CN1C(=O)[C@@H](CC(=O)N1CCCC1)C(C)(C)C)C(=O)O` (stereo partly drawn) [Compound 38, 1-((2S,4R)-1-((S)-2-tert-butyl-4-oxo-4-(pyrrolidin-1-yl)butanoyl)-4-(7-methoxy-2-phenylquinolin-4-yloxy)pyrrolidine-2-carboxamido)-2-vinylcyclopropanecarboxylic acid]: the EC50 was over 10 µM.

Regarding `C=CC1CC1(NC(=O)[C@@H]1C[C@@H](Oc2cc(-c3ccccc3)nc3cc(OC)ccc23)CN1C(=O)[C@@H](CC(=O)N1CCCC1)C(C)(C)C)C(=O)OCC` (stereo partly drawn) [Compound 39, ethyl 1-((2S,4R)-1-((S)-2-tert-butyl-4-oxo-4-(pyrrolidin-1-yl)butanoyl)-4-(7-methoxy-2-phenylquinolin-4-yloxy)pyrrolidine-2-carboxamido)-2-vinylcyclopropanecarboxylate], the EC50 is over 10 µM.

`C=CC1CC1(NC(=O)[C@@H]1C[C@@H](Oc2cc(-c3ccccc3)nc3cc(OC)ccc23)CN1C(=O)[C@@H](CC(=O)N1CCCCC1)C(C)(C)C)C(=O)OCC` (stereo partly drawn) [Compound 40, ethyl 1-((2S,4R)-1-((S)-2-tert-butyl-4-oxo-4-(piperidin-1-yl)butanoyl)-4-(7-methoxy-2-phenylquinolin-4-yloxy)pyrrolidine-2-carboxamido)-2-vinylcyclopropanecarboxylate] gave an EC50 of over 10 µM.

The compound `C=CC1CC1(NC(=O)[C@@H]1C[C@@H](Oc2cc(-c3ccccc3)nc3cc(OC)ccc23)CN1C(=O)[C@@H](CC(=O)N1CCCCC1)C(C)(C)C)C(=O)O` (stereo partly drawn) [Compound 41, 1-((2S,4R)-1-((S)-2-tert-butyl-4-oxo-4-(piperidin-1-yl)butanoyl)-4-(7-methoxy-2-phenylquinolin-4-yloxy)pyrrolidine-2-carboxamido)-2-vinylcyclopropanecarboxylic acid] registered an EC50 of 1 to 10 µM.

The compound `C=CC1CC1(NC(=O)[C@@H]1C[C@@H](Oc2cc(-c3ccccc3)nc3cc(OC)ccc23)CN1C(=O)[C@@H](CC(=O)N1CCC(O)C1)C(C)(C)C)C(=O)O` (stereo partly drawn) [Compound 42, 1-((2S,4R)-1-((2S)-2-tert-butyl-4-(3-hydroxypyrrolidin-1-yl)-4-oxobutanoyl)-4-(7-methoxy-2-phenylquinolin-4-yloxy)pyrrolidine-2-carboxamido)-2-vinylcyclopropanecarboxylic acid] registered an EC50 of over 10 µM.

Consider `C=CC1CC1(NC(=O)[C@@H]1C[C@@H](Oc2cc(-c3ccccc3)nc3cc(OC)ccc23)CN1C(=O)[C@@H](CC(=O)N1CCN(C)CC1)C(C)(C)C)C(=O)O` (stereo partly drawn) [Compound 43, 1-((2S,4R)-1-((S)-2-tert-butyl-4-(4-methylpiperazin-1-yl)-4-oxobutanoyl)-4-(7-methoxy-2-phenylquinolin-4-yloxy)pyrrolidine-2-carboxamido)-2-vinylcyclopropanecarboxylic acid], for which the EC50 was over 10 µM.

In turn, `C=CC1CC1(NC(=O)[C@@H]1C[C@@H](Oc2cc(-c3ccccc3)nc3cc(OC)ccc23)CN1C(=O)[C@@H](CC(=O)N1CCCCC1C(N)=O)C(C)(C)C)C(=O)O` (stereo partly drawn) [Compound 44, 1-((2S,4R)-1-((2S)-2-tert-butyl-4-(2-carbamoylpiperidin-1-yl)-4-oxobutanoyl)-4-(7-methoxy-2-phenylquinolin-4-yloxy)pyrrolidine-2-carboxamido)-2-vinylcyclopropanecarboxylic acid] came in with an EC50 of over 10 µM.

For `C=CC1CC1(NC(=O)[C@@H]1C[C@@H](Oc2cc(-c3ccccc3)nc3cc(OC)ccc23)CN1C(=O)[C@@H](CC(=O)N1CCCCC1C(N)=O)C(C)(C)C)C(=O)OCC` (stereo partly drawn) [Compound 45, ethyl 1-((2S,4R)-1-((2S)-2-tert-butyl-4-(2-carbamoylpiperidin-1-yl)-4-oxobutanoyl)-4-(7-methoxy-2-phenylquinolin-4-yloxy)pyrrolidine-2-carboxamido)-2-vinylcyclopropanecarboxylate], the EC50 lay within 1 to 10 µM.

Take `C=CC1CC1(NC(=O)[C@@H]1C[C@@H](Oc2cc(-c3ccccc3)nc3cc(OC)ccc23)CN1C(=O)[C@@H](CC(=O)N1CCC(CNC(=O)OC(C)(C)C)CC1)C(C)(C)C)C(=O)O` (stereo partly drawn) [Compound 46, 1-((2S,4R)-1-((S)-4-(4-((tert-butoxycarbonylamino)methyl)piperidin-1-yl)-2-tert-butyl-4-oxobutanoyl)-4-(7-methoxy-2-phenylquinolin-4-yloxy)pyrrolidine-2-carboxamido)-2-vinylcyclopropanecarboxylic acid]: the EC50 is over 10 µM.

For `C=CC1CC1(NC(=O)[C@@H]1C[C@@H](Oc2cc(-c3ccccc3)nc3cc(OC)ccc23)CN1C(=O)[C@@H](CC(=O)N1CCCCC1)C(C)(C)C)C(=O)NS(=O)(=O)C1CC1` (stereo partly drawn) [Compound 49, (2S,4R)-1-((S)-2-tert-butyl-4-oxo-4-(piperidin-1-yl)butanoyl)-N-(1-(cyclopropylsulfonylcarbamoyl)-2-vinylcyclopropyl)-4-(7-methoxy-2-phenylquinolin-4-yloxy)pyrrolidine-2-carboxamide], the EC50 was under 0.1 µM.

The compound `C=CC1CC1(NC(=O)[C@@H]1C[C@@H](Oc2cc(-c3ccccc3)nc3cc(OC)ccc23)CN1C(=O)[C@@H](CC(=O)N1CCc2ccccc2C1)C(C)(C)C)C(=O)OCC` (stereo partly drawn) [Compound 51, ethyl 1-((2S,4R)-1-((S)-2-tert-butyl-4-(3,4-dihydroisoquinolin-2(1H)-yl)-4-oxobutanoyl)-4-(7-methoxy-2-phenylquinolin-4-yloxy)pyrrolidine-2-carboxamido)-2-vinylcyclopropanecarboxylate] gave an EC50 of over 10 µM.

As for `COc1cc(O[C@@H]2C[C@H]3C(=O)N[C@]4(C(=O)O)C[C@H]4/C=C\CCCCC[C@H](CC(=O)N4CCCCC4)C(=O)N3C2)c2ccc(-c3ccccc3)nc2c1` [Compound 52, (2R,6R,13aS,14aR,16aS,Z)-2-(7-methoxy-2-phenylquinolin-4-yloxy)-5,16-dioxo-6-(2-oxo-2-(piperidin-1-yl)ethyl)-1,2,3,5,6,7,8,9,10,11,13a,14,14a,15,16,16a-hexahydrocyclopropa[e]pyrrolo[1,2-a] [1,4]diazacyclopentadecine-14a-carboxylic acid], the EC50 was over 10 µM.

Compound `C=CC1CC1(NC(=O)[C@@H]1C[C@@H](Oc2cc(-c3ccccc3)nc3cc(OC)ccc23)CN1C(=O)[C@@H](CC(=O)N1CCCc2ccccc21)C(C)(C)C)C(=O)O` (stereo partly drawn) [Compound 56, 1-((2S,4R)-1-((S)-2-tert-butyl-4-(3,4-dihydroquinolin-1(2H)-yl)-4-oxobutanoyl)-4-(7-methoxy-2-phenylquinolin-4-yloxy)pyrrolidine-2-carboxamido)-2-vinylcyclopropanecarboxylic acid] came in with an EC50 of 1 to 10 µM.

`C=CC1CC1(NC(=O)[C@@H]1C[C@@H](Oc2cc(-c3ccccc3)nc3cc(OC)ccc23)CN1C(=O)[C@@H](CC(=O)N1CCc2ccccc2C1)C(C)(C)C)C(=O)O` (stereo partly drawn) [Compound 57, 1-((2S,4R)-1-((S)-2-tert-butyl-4-(3,4-dihydroisoquinolin-2(1H)-yl)-4-oxobutanoyl)-4-(7-methoxy-2-phenylquinolin-4-yloxy)pyrrolidine-2-carboxamido)-2-vinylcyclopropanecarboxylic acid] returned an EC50 of over 10 µM.
